# Source: ChEMBL document CHEMBL3769389, “Development of a potent 2-oxoamide inhibitor of secreted phospholipase A2 guided by molecular docking calculations and molecular dynamics simulations” (Bioorg Med Chem, 2016)
# Key:
# [1] = molecular target: T1, Phospholipase A2, membrane associated (Homo sapiens) (UniProt P14555); experiment: Inhibition of human group 2A secreted phospholipase A2 at 1 uM by fluorescence assay
# T1 sequence (whole entry): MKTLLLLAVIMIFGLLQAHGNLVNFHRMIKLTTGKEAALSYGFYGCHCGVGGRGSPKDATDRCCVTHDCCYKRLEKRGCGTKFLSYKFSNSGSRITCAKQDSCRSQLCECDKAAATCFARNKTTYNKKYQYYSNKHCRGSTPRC
# [2] = molecular target: T2, Phospholipase A2, membrane associated (Mus musculus) (UniProt P31482); experiment: Inhibition of mouse group 2A secreted phospholipase A2 at 1 uM by fluorescence assay
# T2 sequence (whole entry): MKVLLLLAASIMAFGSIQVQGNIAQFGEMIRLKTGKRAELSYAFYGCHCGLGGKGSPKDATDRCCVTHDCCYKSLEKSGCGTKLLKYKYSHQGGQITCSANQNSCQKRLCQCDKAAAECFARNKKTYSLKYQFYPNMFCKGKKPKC
# [3] = molecular target: T1, Phospholipase A2, membrane associated (Homo sapiens); experiment: Inhibition of human group 2A secreted phospholipase A2 at 10 uM by fluorescence assay
# [4] = molecular target: Phospholipase A2 (Homo sapiens) (UniProt P04054); experiment: Inhibition of human group 1B secreted phospholipase A2 at 10 uM by fluorescence assay
# [5] = molecular target: T3, Phospholipase A2 group V (Homo sapiens) (UniProt P39877); experiment: Inhibition of human group 5 secreted phospholipase A2 at 10 uM by fluorescence assay
# T3 sequence (whole entry): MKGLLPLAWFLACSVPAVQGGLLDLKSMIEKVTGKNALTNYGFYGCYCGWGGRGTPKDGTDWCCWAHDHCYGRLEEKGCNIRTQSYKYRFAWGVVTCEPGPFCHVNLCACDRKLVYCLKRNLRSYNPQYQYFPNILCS
# [6] = molecular target: T4, Group 10 secretory phospholipase A2 (Homo sapiens) (UniProt O15496); experiment: Inhibition of human group 10 secreted phospholipase A2 at 10 uM by fluorescence assay
# T4 sequence (whole entry): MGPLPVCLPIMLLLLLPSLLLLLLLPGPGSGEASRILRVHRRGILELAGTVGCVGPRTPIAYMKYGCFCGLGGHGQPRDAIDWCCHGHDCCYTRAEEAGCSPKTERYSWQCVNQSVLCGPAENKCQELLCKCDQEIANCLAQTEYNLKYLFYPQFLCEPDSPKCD
# [7] = molecular target: T5, Phospholipase A2, membrane associated (Homo sapiens, UniProt P14555); experiment: Inhibition of human group 2A secreted phospholipase A2 by fluorescence assay
# T5 sequence (P14555 whole entry): T1 sequence (whole entry)
# Phospholipase A2 group V = molecular target: T6, Phospholipase A2 group V (Homo sapiens, UniProt P39877); experiment: Inhibition of human group 5 secreted phospholipase A2 by fluorescence assay
# T6 sequence (P39877 whole entry): T3 sequence (whole entry)
# [8] = molecular target: T7, Phospholipase A2, membrane associated (Mus musculus, UniProt P31482); experiment: Inhibition of mouse group 2A secreted phospholipase A2 by fluorescence assay
# T7 sequence (P31482 whole entry): T2 sequence (whole entry)
# [9] = molecular target: T4, Group 10 secretory phospholipase A2 (Homo sapiens); experiment: Inhibition of human group 10 secreted phospholipase A2 assessed as remaining activity at 1000 nM by fluorescence assay
# [10] = molecular target: Phospholipase A2 (Homo sapiens) (UniProt P04054); experiment: Inhibition of human group 1B secreted phospholipase A2 assessed as remaining activity at 1000 nM by fluorescence assay
# [11] = molecular target: T8, Group IIE secretory phospholipase A2 (Homo sapiens) (UniProt Q9NZK7); experiment: Inhibition of human group 2E secreted phospholipase A2 assessed as remaining activity at 1000 nM by fluorescence assay
# T8 sequence (whole entry): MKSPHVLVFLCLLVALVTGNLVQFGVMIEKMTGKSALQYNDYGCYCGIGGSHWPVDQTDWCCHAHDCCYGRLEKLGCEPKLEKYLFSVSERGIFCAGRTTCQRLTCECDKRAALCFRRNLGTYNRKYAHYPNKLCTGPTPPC
# [12] = molecular target: T9, Group IIF secretory phospholipase A2 (Homo sapiens) (UniProt Q9BZM2); experiment: Inhibition of human group 2F secreted phospholipase A2 assessed as remaining activity at 1000 nM by fluorescence assay
# T9 sequence (whole entry): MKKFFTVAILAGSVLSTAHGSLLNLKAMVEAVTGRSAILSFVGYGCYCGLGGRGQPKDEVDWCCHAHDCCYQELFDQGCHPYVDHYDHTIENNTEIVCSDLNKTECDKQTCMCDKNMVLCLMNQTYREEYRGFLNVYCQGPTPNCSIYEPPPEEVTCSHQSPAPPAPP
# [13] = molecular target: T10, Group 10 secretory phospholipase A2 (Mus musculus) (UniProt Q9QXX3); experiment: Inhibition of mouse group 10 secreted phospholipase A2 assessed as remaining activity at 1000 nM by fluorescence assay
# T10 sequence (whole entry): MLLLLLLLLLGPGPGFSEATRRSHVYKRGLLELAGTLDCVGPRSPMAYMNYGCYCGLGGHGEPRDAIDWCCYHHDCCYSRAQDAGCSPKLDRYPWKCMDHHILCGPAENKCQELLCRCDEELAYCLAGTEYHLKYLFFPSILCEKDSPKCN
# [14] = molecular target: T11, Group IID secretory phospholipase A2 (Mus musculus) (UniProt Q9WVF6); experiment: Inhibition of mouse 2D secreted phospholipase A2 assessed as remaining activity at 1000 nM by fluorescence assay
# T11 sequence (whole entry): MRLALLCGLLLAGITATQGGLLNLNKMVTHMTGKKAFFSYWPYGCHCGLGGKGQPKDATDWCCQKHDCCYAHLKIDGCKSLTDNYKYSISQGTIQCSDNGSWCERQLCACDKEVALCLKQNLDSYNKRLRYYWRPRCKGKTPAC
# [15] = molecular target: T12, Phospholipase A2 group V (Mus musculus) (UniProt P97391); experiment: Inhibition of mouse group 5 secreted phospholipase A2 assessed as remaining activity at 1000 nM by fluorescence assay
# T12 sequence (whole entry): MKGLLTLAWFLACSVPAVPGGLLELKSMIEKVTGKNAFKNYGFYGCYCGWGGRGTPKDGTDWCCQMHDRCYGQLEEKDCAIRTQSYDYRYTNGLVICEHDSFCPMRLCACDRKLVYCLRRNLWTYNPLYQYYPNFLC
# Homo sapiens = organism: Homo sapiens; experiment: Selectivity ratio of IC50 for human group 5 secreted phospholipase A2 to human group 2A secreted phospholipase A2
# [16] = molecular target: T1, Phospholipase A2, membrane associated (Homo sapiens); experiment: Potency index, ratio of GK126 IC50 to compound IC50 for human group 2A secreted phospholipase A2
# [17] = molecular target: T2, Phospholipase A2, membrane associated (Mus musculus); experiment: Potency index, ratio of GK126 IC50 to compound IC50 for mouse group 2A secreted phospholipase A2
# Chain of Phospholipase A2 (Homo sapiens) (P04054 23-148 limits assumed): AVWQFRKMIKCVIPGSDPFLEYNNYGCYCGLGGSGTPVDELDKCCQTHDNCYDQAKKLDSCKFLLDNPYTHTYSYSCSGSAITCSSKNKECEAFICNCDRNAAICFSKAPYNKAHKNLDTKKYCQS
inhibition [1] [%],inhibition [2] [%],inhibition [3] [%],inhibition [4] [%],inhibition [5] [%],inhibition [6] [%],Compound,other results
< 25,< 25,,,,,CCCCCCCCCCCCCCC(=O)C(=O)N[C@@H](CCC(=O)O)C(=O)OCC,
,,50,50,53,56,CC(C)[C@H](NC(=O)C(=O)c1ccc2ccccc2c1)C(=O)O,
,,27,20,26,51,CC(C)[C@H](NC(=O)C(=O)CCCCc1ccc2ccccc2c1)C(=O)O,
< 25,< 25,,,,,CCCCCCCCCCCCCCC(=O)C(=O)N[C@@H](C)C(=O)O,
< 25,< 25,,,,,CCCCCCCCCCCCCCC(=O)C(=O)N[C@H](C(=O)O)C(C)(C)C,
< 25,< 25,,,,,CCCCCCCCCCCCCCC(=O)C(=O)NC(C)(C)C(=O)O,
< 25,< 25,,,,,CCCCCCCCCCCCCCC(=O)C(=O)N1CCC[C@H]1C(=O)O,
,,21,30,50,54,CC(C)[C@H](NC(=O)C(=O)CCCCc1ccc(-c2ccccc2)cc1)C(=O)O,
< 25,< 25,,,,,CCCCCCCCCCCCCCC(=O)C(=O)N[C@@H](CCC(=O)O)C(=O)O,
,,,,,,CCCCCCCCCCCCCCC(=O)C(=O)N[C@H](C(=O)O)C(C)C,IC50 [7]: 143 nM; IC50 (Phospholipase A2 group V): 1200 nM; IC50 [8]: 68 nM; Activity [9]: 95%; Activity [10]: 98%; Activity [11]: 93%; Activity [12]: 94%; Activity [13]: 98%; Activity [14]: 99%; Activity [15]: 90%; Ratio IC50 (Homo sapiens): 10; Ratio IC50 [16]: 2; Ratio IC50 [17]: 2
,,11,56,40,40,CC(C)[C@H](NC(=O)C(=O)CCCCc1ccccc1)C(=O)O,
